# Values quoted from earlier work, collected in paper PMC12207880 (The Oncologist, 2025).
# Like-named read-outs stand apart in the source and are kept apart here.
# Assays:
# [1] = tested on: advanced solid tumors; set-up: method as in earlier work
# [2] = tested on: patients treated with endocrine therapy combined with palbociclib
# [3] = tested on: patients treated with abemaciclib alone
# [4] = 200 mg BID
# [5] = sample size 33 (escalation phase), U.S.A
# [6] = sample size 132, U.S.A, France, Netherland
compound,measurement,setting,value
"CC(=O)c1c(C)c2cnc(Nc3ccc(N4CCNCC4)cn3)nc2n(C2CCCC2)c1=O [Palbociclib, palbociclib]",Overall DCR,"[1]; sample size 37, U.S.A",35%
same,Overall ORR,"[1]; sample size 37, U.S.A",0%
same,grade 4 increased GGT,[2]; 1 of 135 patients,0.7%
same,grade 3 increased GGT,[2]; 3 of 135 patients,2.2%
same,overall incidence of increased GGT,[2]; 135 patients,4.4%
"CCN1CCN(Cc2ccc(Nc3ncc(F)c(-c4cc(F)c5nc(C)n(C(C)C)c5c4)n3)nc2)CC1 [Abemaciclib, abemaciclib]",hypokalaemia of grade 3,[3],2 patients
same,hypokalaemia of all grades,[3]; 34 of 130 patients,26.2%
same,Overall DCR,"[1]; sample size 25, China",68.0%
same,Overall ORR,"[1]; sample size 25, China",8.0%
same,Overall DCR,[1]; [5],48.5%
same,Overall ORR,[1]; [5],0%
same,Ctrough,[4]; n=5,"210 (89%, n=5) ng/mL"
same,Ctrough,[4]; n=52,"197 (82%, n=52) ng/mL"
"CN(C)C(=O)c1cc2cnc(Nc3ccc(N4CCNCC4)cn3)nc2n1C1CCCC1 [Ribociclib, ribociclib]",Overall DCR,[1]; [6],32.6%
same,Overall ORR,[1]; [6],2.3%
